Experimental data taken from PubChem BioAssay (NCI).
Several values for one entry are separate records, joined by “and”; a condition that tells them apart may be missing. Equal values may be shown once.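 Five concentrations, 48 hours, 96-well plates. GI50 marks 50% less growth. TGI: concentration producing complete growth inhibition.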

tested on: SK-OV-3 ovarian; assay: inhibition of tumour cell growth, NCI panel, 48 h

Question: With `CNC(=S)/N=C(\N)N(C)C` as the compound, how does the TGI read?
Answer: The TGI was > 100 µM.

Question: With `CC(=O)C1Cn2c(nc3ccccc32)C[Se]1` (stereo not given) as the compound, how does the TGI read?
Answer: Its TGI is 34 µM.

Question: With `COc1cc(Cc2nccc3cc(OC)c(OC)cc23)c(C(C)=O)cc1OC` as the compound, how does the TGI read?
Answer: The TGI was 254 µM.

Question: Which GI50 does the source give for `Nc1ccccc1C#C/C=C\C#Cc1ccccc1N` here?
Answer: Its GI50 is 23.2 µM.

Question: What about the TGI of the same compound?
Answer: Its TGI is 54.9 µM.

Question: `CN(C)CCC1(C2=CCCC2)CC/C(=C\c2ccc(Cl)cc2)C1=O` (stereo not given) was tested. Which TGI did it give?
Answer: Its TGI is 19.6 µM.

Question: Which TGI does the source give for `CC1=CC(C)(C)N=C2SC(c3ccc(N)cc3)=NN12` here?
Answer: The TGI was > 100 µM.

Question: How did the TGI turn out when `c1cnn(CN(Cn2cccn2)Cn2cccn2)c1` was run?
Answer: The TGI was > 100 µM.

Question: Which TGI does the source give for `O=C1C2C3C=C4c5ccccc5N(c5ccccc5)C4(C2C(=O)N1c1ccc([N+](=O)[O-])cc1)[C@H]1C(=O)N(c2ccc([N+](=O)[O-])cc2)C(=O)[C@@H]31` (stereo not given in full) here?
Answer: Its TGI is > 100 µM.

tested on: LOX IMVI melanoma; assay: inhibition of tumour cell growth, NCI panel, 48 h

Question: What does the source list for `CC1(C)C(=O)/C(=C\c2cccnc2)C[C@]2(C)[C@H]3CC[C@@H]4[C@H]5[C@H](C(=O)/C=C/c6cccnc6)CC[C@]5(C(=O)O)CC[C@@]4(C)[C@]3(C)CC[C@@H]12`?
Answer: GI50: 1.74 µM; TGI: 3.6 µM

Question: `COc1cc2ncnc(-n3ncc4cc(NC(=O)Nc5ccccc5)ccc43)c2cc1OC` was tested. Which GI50 did it give?
Answer: The GI50 was 0.722 µM.

Question: And the TGI?
Answer: The TGI was 2.75 µM.

Question: With `OCC1OC(n2cnc3c2NC=NC[C@H]3O)C(Cl)C1O` (stereo not given in full) as the compound, how does the TGI read?
Answer: The TGI was > 100 µM.

Question: For `COc1ccc(C2=C(Cl)c3cc(OC)c(OC)cc3C2Cl)cc1` (stereo not given), which TGI is on record?
Answer: The TGI was 27.5 µM.

Question: Which GI50 does the source give for `COc1ccc(-c2[nH]c3ccc(OC)cc3c2/C=C(\C#N)S(=O)(=O)c2ccccc2)cc1` here?
Answer: The GI50 was 1.15 µM.

Question: What about the TGI of the same compound?
Answer: The TGI was > 100 µM.

Question: For `O=c1cc(NCC(O)CN2CCCC2)n(Cc2ccccc2)c(=O)n1Cc1ccccc1` (stereo not given), which GI50 is on record?
Answer: The GI50 was 18.5 µM.

Question: What about the TGI of the same compound?
Answer: The TGI was 38.7 µM.

Question: What does the source list for `c1ccc(Sc2ccc(Cc3nc4cc5ccccc5cc4[nH]3)cc2)cc1`?
Answer: GI50: 1.42 µM; TGI: 29.1 µM

Question: How did the GI50 turn out when `CCc1nc2cc(F)c(/C=C/C(=O)NO)cc2c(=O)n1CCc1ccccc1` was run?
Answer: The GI50 was 0.208 µM.

Question: And the TGI?
Answer: Its TGI is 0.46 µM.

Question: With `CC1=C(/C=C/Cl)CC(Cl)C(C)(Cl)C1` (stereo not given) as the compound, how does the TGI read?
Answer: The TGI was > 100 µM.

Question: For `COc1cc2c(cc1OCCCCC(=O)Nc1cc3c4ccccc4ccc3c3ccccc13)N=C[C@@H]1CCCN1C2=O`, which GI50 is on record?
Answer: Its GI50 is 32.1 µM.

Question: What about the TGI of the same compound?
Answer: Its TGI is > 100 µM.

Question: What does the source list for `C=C1C(=O)O[C@H]2[C@H]1CC/C(COC(=O)NCCCCNC(=O)OC/C1=C/CC[C@@]3(C)O[C@H]3[C@H]3OC(=O)C(=C)[C@@H]3CC1)=C\CC[C@@]1(C)O[C@@H]21`?
Answer: GI50: 0.519 µM; TGI: 1.92 µM

Question: How did the TGI turn out when `COc1ccc(-c2cc(-c3cc(C)cc(Br)c3O)no2)cc1` was run?
Answer: Its TGI is > 100 µM.

Question: How did the GI50 turn out when `COc1ccc(-c2nc3ccccn3c2/C=C/C(=O)c2cc(OC)c(OC)c(OC)c2)cc1OC` was run?
Answer: Its GI50 is 2.26 µM.

Question: What about the TGI of the same compound?
Answer: Its TGI is 6.62 µM.

Question: What does the source list for `COc1cc2c3c(n(CCCN)c(=O)c2cc1OC)-c1ccc(C#N)cc1C3=O`?
Answer: GI50: 13.6 µM; TGI: 30 µM

Question: For `O=C(Nc1cc(Cl)c(Cl)cc1Cl)C(=O)C1C(=O)NC(=S)NC1=O`, which TGI is on record?
Answer: The TGI was > 100 µM.

Question: `CCCCC(CC)COC(=O)C[N+](C)(C)CCOC(c1ccccc1)c1ccccc1` (stereo not given) was tested. Which GI50 did it give?
Answer: Its GI50 is 1.66 µM.

Question: And the TGI?
Answer: Its TGI is 3.02 µM.

Question: Which TGI does the source give for `CCOC(=O)/C(C)=C(/O)C(=O)OCC` here?
Answer: The TGI was > 100 µM.

Question: With `CCCCNC1CCCCC[C@H]1O` (stereo not given in full) as the compound, how does the TGI read?
Answer: Its TGI is > 100 µM.

Question: For `COc1cc(/C=C/c2ccc(OC)c(O)c2)cc(OC)c1`, which TGI is on record?
Answer: Its TGI is 34.2 µM.

Question: Which GI50 does the source give for `COc1ccc(C(=O)c2cc(C)c(OC)c(C)c2)cc1OC(=O)CCl` here?
Answer: The GI50 was < 0.01 µM.

Question: What about the TGI of the same compound?
Answer: Its TGI is > 100 µM.

Question: `O=C(Nc1ccccc1-c1nc2ccccc2[nH]c1=O)c1ccccc1` was tested. Which TGI did it give?
Answer: Its TGI is 61.9 µM.

Question: `CC1=[N+]([O-])c2ccccc2C(=O)C1=O` was tested. Which TGI did it give?
Answer: Its TGI is > 100 µM.

Question: Which results are given for `NC(=O)c1cc(Cl)ccc1NC(=O)/C=C/c1ccccc1`?
Answer: GI50: 4.33 µM; TGI: > 100 µM

Question: With `CNC(=S)/N=C(\N)N(C)C` as the compound, how does the TGI read?
Answer: Its TGI is > 100 µM.

Question: Which TGI does the source give for `CC(=O)C1Cn2c(nc3ccccc32)C[Se]1` (stereo not given) here?
Answer: Its TGI is 12 µM.

Question: How did the GI50 turn out when `COc1cc(Cc2nccc3cc(OC)c(OC)cc23)c(C(C)=O)cc1OC` was run?
Answer: Its GI50 is 150 µM and 94 µM.

Question: And the TGI?
Answer: The TGI was 300 µM and > 750 µM.

Question: `Nc1ccccc1C#C/C=C\C#Cc1ccccc1N` was tested. Which GI50 did it give?
Answer: Its GI50 is 17.9 µM.

Question: What about the TGI of the same compound?
Answer: Its TGI is 33.7 µM.

Question: How did the TGI turn out when `CN(C)CCC1(C2=CCCC2)CC/C(=C\c2ccc(Cl)cc2)C1=O` (stereo not given) was run?
Answer: Its TGI is 23.1 µM.

Question: `CC1=CC(C)(C)N=C2SC(c3ccc(N)cc3)=NN12` was tested. Which TGI did it give?
Answer: The TGI was > 100 µM.

Question: For `c1cnn(CN(Cn2cccn2)Cn2cccn2)c1`, which TGI is on record?
Answer: Its TGI is > 100 µM.

Question: How did the TGI turn out when `O=C1C2C3C=C4c5ccccc5N(c5ccccc5)C4(C2C(=O)N1c1ccc([N+](=O)[O-])cc1)[C@H]1C(=O)N(c2ccc([N+](=O)[O-])cc2)C(=O)[C@@H]31` (stereo not given in full) was run?
Answer: Its TGI is > 100 µM.
